21 molecules from patent publication US7629332B2, “Nitrophenyl mustard and nitrophenylaziridine alcohols and their corresponding phosphates and their use as targeted cytotoxic agents” (Auckland Uniservices Limited, priority 2003, dated 2009) can be followed below.

Usually melting point stands for the temperature of the solid-liquid transition. Broadly, the IC50 is the concentration needed to halve the response being measured. Lower therefore signals higher potency.

“Also recorded” adds a separate entry of the source.

For data set [1], the system named is SiHa human tumour xenografts. Nature of the data set: SiHa xenograft excision / clonogenic assay, with or without 15 Gy radiation. Format: in vivo. The conditions noted are these: for Log kill, cmpd after radiation: single i.p. dose 5 min after 15 Gy, relative to radiation only; for Activity against hypoxic cells: 20% of respective MTDs, after radiation.
The nature of data set [2]: in vivo. The conditions noted are these: mouse.
Data set [3] relates to A549 (P450R+ve). As to the kind of experiment: Cell proliferation (sulphorhodamine B) IC50, P450R-transfected A549 human lung cells, anoxia vs 20% O2. In kind it is cell-based. The settings on record: for A549 (P450R+ve) 20% O2/anoxia IC50 Ratio: 4 h, sensitivity ratio for hypoxia; for IC50: A549, 4 h drug exposure under 0% oxygen.
In data set [4] the test system is WiDr (NTR+ve). As to the kind of experiment: Cell proliferation (sulphorhodamine B) IC50, NTR-transfected WiDr human colon cells. Format: cell-based. The settings on record: for WiDr WT:NTR IC50 Ratio: 4 h, sensitivity ratio for NTR expression; for IC50: WiDr, 4 h drug exposure, growth 5 further days.
The test system of data set [5] is WiDr human colon carcinoma xenografts (90% NTR-ve and 10% NTR+ve). As to the kind of experiment: WiDr in vivo growth delay assay, mixed WiDr WT / WiDr NTR xenografts. The settings on record: single dose at MTD (750 μmol/kg), xenografts treated at 300 mm3. From the text: FIG. 2a depicts in vivo activity of compound IIb-7 and its corresponding phosphate pre-prodrug, Ib-7P, against human colon carcinoma xenografts grown by inoculating mixtures of 90% NTR−ve and 10% NTR+ve Wi Dr cells;
FIG. 2b are plots of % animals survival versus time (days), in which open circles denote wild-type WiDR human colon carcinoma xenografts, and filled circles denote tumours containing WiDr cells transfected with the E. coli NTR gene;
In the WiDr in vivo growth delay assay, xenografts containing mixtures of WiDr^WT and WiDr^NTR cells are grown to 300 mm^3 and treated with a single dose of prodrug at its MTD. Tumour growth is monitored over time and animals are euthanased when mean tumour volume >1600 mm^3. Data is presented as time to death.

Data set [6] deals with Rif-1 tumour. Nature of the data set: In vivo excision assay with the Rif-1 tumour (15 Gy). As to the method: FIG. 1b depicts an excision assay method: 300-500 mg Rif-1 xenograft→ 15 Gy→ Single prodrug dose @ MTD→ 18 hr→ excision→ disaggregate→ plate 10^2-10^5 cells→ 12 days→ colonies counted;
This employs an in vivo excision assay with the Rif-1 tumour, where the oxic tumour cells are sterilised using 15 Gy of radiation, and the cytotoxicity of an agent against the remaining hypoxic cells can be quantitated. […] Thus Ib-7P acts as a hypoxia-selective cytotoxin in vivo.

Setting [7] is: 75% of MTD, single i.p. dose, no radiation, relative to vehicle controls, excision 18 h.

In the case of `O=C(NCCCOP(=O)(O)O)c1cc(N(CCCl)CCCl)c([N+](=O)[O-])cc1[N+](=O)[O-]`, the melting point lay in the range of 195 to 200 °C.
Consider `CC(Br)CN(CC(C)Br)c1c(C(=O)NCCOP(=O)(O)O)cc([N+](=O)[O-])cc1[N+](=O)[O-]` (centres unmarked), for which the melting point fell in the range of 157 to 161 °C.
Regarding “2-[(2-Iodoethyl)-2,4-Dinitro-6-({[2-(Phosphonooxy)Ethyl]Amino}Carbonyl)-Anilino]Ethyl Methanesulfonate [Ib-15P]”, the entries for the “Log kill, cmpd after radiation” value in data set [1] (20% of MTD) and in data set [1] (75% of MTD) were 1.74 ± 0.23 and “≧3.27 ± 0.13”, respectively. Moreover, in data set [1] (setting [7]), the “Log kill, cmpd only, Mean ± sem” value was determined as 2.24 ± 0.15.
Regarding `O=C(O)CCCc1ccc(N(CCCl)CCCl)cc1` [Chlorambucil, reference compound], the MTD in data set [2] (CD-1 nude, ip) was found to be 237 µmol/kg. Further, the “Activity against hypoxic cells” value in data set [1] is on record as “lacked activity”. Further, the “Log kill, cmpd only, Mean ± sem” value in data set [1] (setting [7]) came to 0.11 ± 0.04.
In data set [2] (CD-1 nude, ip), `O=P1(N(CCCl)CCCl)NCCCO1` (centres unmarked) [Cyclophosphamide, reference compound] came in with an MTD of 750 µmol/kg. Moreover, the “Activity against hypoxic cells” value in data set [1] is “lacked activity”.
`CS(=O)(=O)c1cc([N+](=O)[O-])c(C(=O)NCCO)cc1N(CCBr)CCBr` [IIa-7s, 5-[Bis(2-Bromoethyl)Amino]-N-(2-hydroxyethyl)-4-(Methylsulfonyl)-2-Nitrobenzamide] yielded a melting point of 126 to 127 °C. Moreover, in data set [3], the “A549 (P450R+ve) 20% O2/anoxia IC50 Ratio” value worked out at 109 and 2.1 µM corresponded to half-maximal inhibition (IC50). In data set [4], the “WiDr WT:NTR IC50 Ratio” value stood at 35 and the IC50 turned out to be 9.3 µM.
Taken in the same sequence, the figures for `O=C(NCCCCO)c1cc(N(CCBr)CCBr)c([N+](=O)[O-])cc1[N+](=O)[O-]` [IIa-9, N-(4-Hydroxybutyl)-5-[Bis(2-Bromoethyl)Amino]-2,4-Dinitrobenzamide] were 123 to 124 °C, 9.4, 22 µM, 58 and 6.4 µM.
Taken in the same sequence, the figures for `O=C(NCCCCCCO)c1cc([N+](=O)[O-])cc([N+](=O)[O-])c1N1CC1` [IIb-1, 2-(Aziridin-1-yl)-N-(6-Hydroxyhexyl)-3,5-Dinitrobenzamide] were 189 to 192 °C, less than 1.3, 384 µM, 2 and 61 µM.
Taken in the same sequence, the figures for `O=C(NCCO)c1cc([N+](=O)[O-])cc([N+](=O)[O-])c1N(CCCl)CCCl` [IIb-2, 2-[Bis(2-Chloroethyl)Amino]-N-(2-Hydroxyethyl)-3,5-Dinitrobenzamide] were 109 to 111 °C, 20, 18 µM, 47 and 11.8 µM.
`O=C(NCCCO)c1cc([N+](=O)[O-])cc([N+](=O)[O-])c1N(CCCl)CCCl` [IIb-3, 2-[Bis(2-Chloroethyl)Amino]-N-(3-Hydroxypropyl)-3,5-Dinitrobenzamide] showed a melting point of 89 to 91 °C. Besides, in data set [3], the “A549 (P450R+ve) 20% O2/anoxia IC50 Ratio” value is given as 9 and the IC50 was found to be 30 µM. For the same molecule, in data set [4], the “WiDr WT:NTR IC50 Ratio” value was found to be 59 and the IC50 was 13.6 µM.
Take `O=C(NCCO)c1cc([N+](=O)[O-])cc([N+](=O)[O-])c1N(CCBr)CCBr` [IIb-7, 2-[Bis(2-Bromoethyl)Amino]-N-(2-Hydroxyethyl)-3,5-Dinitrobenzamide]: in data set [5], the over-all survival is 6% and the “time to first treatment failure” value turned out to be 17 days. Also, in data set [3], the “A549 (P450R+ve) 20% O2/anoxia IC50 Ratio” value stood at 56 and inhibition was half-maximal at 0.8 µM (IC50). Further, the MTD in data set [2] was found to be 1000 µmol/kg. In data set [4], the “WiDr WT:NTR IC50 Ratio” value stood at 61 and the IC50 came to 0.3 µM.
`CC(Br)CN(CC(C)Br)c1c(C(=O)NCCO)cc([N+](=O)[O-])cc1[N+](=O)[O-]` (centres unmarked) [IIb-7a, 2-[Bis(2-Bromopropyl)Amino]-N-(2-Hydroxyethyl)-3,5-Dinitrobenzamide]: the melting point lay within 127 to 130 °C. In data set [3], the “A549 (P450R+ve) 20% O2/anoxia IC50 Ratio” value was determined as 5.3 and half-maximal inhibition (IC50) was put at 1 µM. Further, in data set [4], the “WiDr WT:NTR IC50 Ratio” value stood at 27 and the IC50 was 0.5 µM.
`O=C(NCCCO)c1cc([N+](=O)[O-])cc([N+](=O)[O-])c1N(CCBr)CCBr` [IIb-8, 2-[Bis(2-Bromoethyl)Amino]-N-(3-Hydroxypropyl)-3,5-Dinitrobenzamide]: the melting point is 89 to 94 °C. Besides, in data set [3], the “A549 (P450R+ve) 20% O2/anoxia IC50 Ratio” value came out at 24 and half-maximal inhibition (IC50) was put at 1.1 µM. In addition, in data set [4], the “WiDr WT:NTR IC50 Ratio” value is listed as 13 and the IC50 came to 0.4 µM.
`O=C(NCCO)c1cc([N+](=O)[O-])cc([N+](=O)[O-])c1N(CCI)CCI` [IIb-14, 2-[Bis(2-Iodoethyl)Amino]-N-(2-Hydroxyethyl)-3,5-Dinitrobenzamide] gave a melting point of 129 to 131 °C. For the same molecule, in data set [3], the “A549 (P450R+ve) 20% O2/anoxia IC50 Ratio” value is 27 and the IC50 turned out to be 1 µM. In data set [4], the “WiDr WT:NTR IC50 Ratio” value came out at 12 and the IC50 is 0.8 µM.
For the molecule `O=C(NCCCOP(=O)(O)O)c1cc(N(CCBr)CCBr)c([N+](=O)[O-])cc1[N+](=O)[O-]` [Ia-8P, 3-[[5-[Bis(2-Bromoethyl)Amino]-2,4-Dinitrobenzoyl]Amino]Propyl Dihydrogen Phosphate], the MTD in data set [2] (CD-1 nude, ip) was found to be 1000 µmol/kg.
On the same count and under the same terms, with `O=C(NCCOP(=O)(O)O)c1cc([N+](=O)[O-])cc([N+](=O)[O-])c1N(CCCl)CCCl` [Ib-2P, 2-[[2-[Bis(2-Chloroethyl)Amino]-3,5-Dinitrobenzoyl]Amino]Ethyl Dihydrogen Phosphate] the figure was 237 µmol/kg.
For the molecule `O=C(NCCOP(=O)(O)O)c1cc([N+](=O)[O-])cc([N+](=O)[O-])c1N(CCBr)CCBr` [Ib-7P, 2-[[2-[Bis(2-Bromoethyl)Amino]-3,5-Dinitrobenzoyl]Amino]Ethyl Dihydrogen Phosphate], in data set [5], the over-all survival was found to be 40% and the “time to first treatment failure” value was 77 days. In data set [2] (CD-1 nude, ip), this molecule had an MTD of 750 µmol/kg. In data set [2], this molecule had an MTD of 750 µmol/kg. The “Log kill, cmpd only, Mean ± sem” value in data set [1] (setting [7]) is reported as 1.20 ± 0.07. Moreover, the “Activity against hypoxic cells, Rif-1 excision assay” value in data set [6] (single dose at MTD after 15 Gy) is listed as “exceed that of its parent alcohol (IIb-7); also recorded: more active against hypoxic cells than the reference hypoxic cytotoxin tirapazamine”. Besides, the “Activity against oxic tumour cells, Rif-1 excision assay” value in data set [6] (single dose at MTD without radiation) is on record as “significant”.
In data set [2] (CD-1 nude, ip), `O=C(NCCOP(=O)(O)O)c1cc([N+](=O)[O-])cc([N+](=O)[O-])c1N(CCI)CCI` [Ib-14P, 2-[[2-[Bis(2-Iodoethyl)Amino]-3,5-Dinitrobenzoyl]Amino]Ethyl Dihydrogen Phosphate] displayed an MTD of 562 µmol/kg. Besides, the “Log kill, cmpd only, Mean ± sem” value in data set [1] (setting [7]) worked out at 0.92 ± 0.06.
Turning to `O=C(NCCCOP(=O)(O)O)c1c([N+](=O)[O-])ccc(N(CCBr)CCBr)c1[N+](=O)[O-]` [Ic-8P, 3-({3-[Bis(2-Bromoethyl)Amino]-2,6-Dinitrobenzoyl}Amino)Propyl Dihydrogen Phosphate], the MTD in data set [2] (CD-1 nude, ip) was determined as 562 µmol/kg.
With `N[C@@H](Cc1ccc(N(CCCl)CCCl)cc1)C(=O)O` [Melphalan, reference compound], the MTD in data set [2] (CD-1 nude, ip) was 42.2 µmol/kg. The “Activity against hypoxic cells” value in data set [1] is on record as “lacked activity”.
On to `Nc1n[n+]([O-])c2ccccc2[n+]1[O-]` [Tirapazamine, reference compound], for which, in data set [2] (CD-1 nude, ip), the MTD was 316 µmol/kg. Moreover, the “Activity against hypoxic cells” value in data set [1] was “lacked activity”. Besides, the “Log kill, cmpd only, Mean ± sem” value in data set [1] (in vivo, ip) is recorded as −0.02 ± 0.01.
